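1) Cells in 96-well plates. 2) Compound, 48 h, 5 concentrations. 3) Linear interpolation between surrounding doses. 4) Unreached endpoint = highest concentration. Abbreviation: GI50, concentration required for 50% inhibition of growth. TGI: concentration producing complete growth inhibition.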 Where a SMILES comes first, the peptide text is derived from it. The star is where a group is joined. Boc = CC(C)(C)OC(=O)*; OBn = c1ccc(CO*)cc1

Common to all, as to assay: NCI-60 cell line screen, 48 h
For assay [1], the system named is HS 578T breast.
The subject of assay [2] is CAKI-1 renal.
The subject of assay [3] is U251 CNS.
In assay [4] the test system is KM12 colon.
For assay [5], the system named is K-562 leukemia.
Assay [6] deals with IGROV1 ovarian.
Assay [7] relates to SF-539 CNS.
The subject of assay [8] is MDA-MB-435.
Assay [9] concerns NCI-H522 lung.
The subject of assay [10] is HCT-116 colon.
The subject of assay [11] is SNB-19 CNS.

`COc1ccccc1Nc1nc(NNC(=O)Cc2ccccc2)nc(NNC(=O)c2ccncc2)n1`: the TGI in assay [1], in assay [2], in assay [3], in assay [4], in [5] and in assay [6] was greater than 10 µM in each case. Moreover, in [7], the TGI is greater than 10 µM.
As for `CC(=O)c1cc2ccccc2n(O)c1=N`, the TGI in assay [1], in [2], in [3], in assay [4], in [8] and in [9] was greater than 100 µM in each case. Further, the TGI in [6], in [7] and in assay [10] was greater than 100 µM each time.
Regarding `CSc1c(C#N)c2n(c3ccccc13)c1ccccc1[n+]2C`, the TGI is greater than 100 µM in assay [1]; 84.3 µM in [2]; 73.7 µM in assay [3]; greater than 100 µM in assay [4]; 79.5 µM in assay [8]; 31.5 µM in [9]. The results for the TGI in assay [6], in [7] and in assay [10] were greater than 100 µM, 78.8 µM and 40.8 µM, respectively.
Turning to `COc1cc2c(cc1OC)-c1c3c(cc4c1[C@@H](C2)N(C)CC4)OCO3`, the TGI in [2] came to 51.4 µM; in assay [3] it was 48.8 µM; in assay [4], 45.1 µM; in [11], 59.9 µM; in assay [5], 33.9 µM; in assay [9], 21.1 µM. Also, the TGI in assay [6] worked out at 49.9 µM; in [7], 16.5 µM; in assay [10] it was 36.6 µM.
As to `COc1ccc(C(=O)N2c3ccccc3Sc3ccccc32)c(C(F)(F)F)c1`, the GI50 is 0.472 µM in assay [1]; 0.692 µM in assay [2]; 0.5 µM in assay [3]; 0.413 µM in assay [4]; 0.349 µM in assay [5]; 0.32 µM in [9]. Further, the GI50 was 2.2 µM in assay [6], 0.271 µM in assay [7] and 0.505 µM in assay [10]. For the same molecule, the TGI in assay [1] was greater than 100 µM; in assay [2], greater than 100 µM; in assay [3], greater than 100 µM; in [4], 34.4 µM; in assay [5] it was greater than 100 µM; in assay [9] it was 14.5 µM. Also, the TGI in assay [6] is greater than 100 µM; in [7] it was 0.995 µM; in assay [10] it was greater than 100 µM.
Take `CSC1=NS(=O)(=O)c2cc(C(=O)NN(C)C(=O)c3cc4c(cc3Cl)SC(SC)=NS4(=O)=O)c(Cl)cc2S1`: the TGI in [1], in assay [2], in assay [3], in assay [4], in assay [11] and in assay [5] was greater than 10 µM in each case. The TGI in [9], in assay [6], in assay [7] and in assay [10] was greater than 10 µM throughout.
Consider `Nc1cc(N2CCCC2)nc(=O)n1Cc1ccccc1`, for which the TGI in assay [2], in assay [3], in [4], in assay [11], in assay [8] and in [5] was greater than 100 µM in each case. The TGI in assay [9], in [6], in [7] and in [10] was greater than 100 µM throughout.
As to `CC1(Cl)CC2C(CC1Sc1nnnn1-c1ccccc1)C2(C)C` (centres undefined), the TGI in [4], in [11], in assay [5], in [6], in [7] and in [10] was greater than 100 µM in each case.
Consider `NCCCCNCCCNC(=O)c1nc(-c2csc(CCN)n2)sc1Cl`, for which the TGI in assay [2], in assay [3], in assay [4], in assay [11], in assay [5] and in assay [9] was greater than 100 µM in each case. Further, the TGI in assay [6], in assay [7] and in [10] was greater than 100 µM in each case.
Turning to `Cc1ccc(N=Nc2c(C)c(C#N)c(=S)n(C3OC(CO)C(O)C(O)C3O)c2-c2ccccc2)cc1` (centres undefined), the TGI stood at 60.4 µM in assay [1]; 92.6 µM in [2]; 30.8 µM in assay [3]; 58.9 µM in assay [4]; 48.1 µM in [11]; 43.8 µM in assay [8]. Further, the TGI in [5] was 83.3 µM; in [6] it was greater than 100 µM; in assay [7], 48.9 µM; in assay [10] it was 29 µM.
Turning to `c1ccc2c(c1)nc1n2CCSC1`, the TGI in assay [1], in assay [2], in assay [3], in [4], in assay [11] and in assay [8] was greater than 100 µM throughout. The TGI in assay [5], in assay [6], in [7] and in [10] was greater than 100 µM throughout.
For `COc1ccc2c(c1)/c(=C/c1ccc(N(C)C)cc1)c1cc(-c3ccccc3)[n+](C)n12`, the TGI in assay [1] came out at 0.44 µM; in [2] it was 5.64 µM; in [3], 1.6 µM; in assay [4], 1.71 µM; in assay [11], 1.21 µM; in assay [8], 1.47 µM. In addition, the TGI was determined as 0.543 µM in [6] and 2.59 µM in assay [10]. Further, the GI50 in assay [5] was 0.0487 µM.
On to `CC(=O)Oc1ccc(C2COc3cc(OC(C)=O)c(OC(C)=O)cc3C2)cc1` (centres undefined), for which the TGI in assay [2] was 27.3 µM; in assay [3], 60.4 µM; in assay [4] it was 69.5 µM; in [11], greater than 100 µM; in assay [5], 51.7 µM; in [9], 7.78 µM. For the same molecule, the TGI in [6] was determined as 31.2 µM; in [7], 40.2 µM; in assay [10], 33.9 µM.
With `CC(C)(C)OC(=O)NC(Cc1ccccc1)C(=O)NC(Cc1ccccc1)C(=O)NCC(=O)OCc1ccccc1` (stereo not drawn) (Boc-Phe-Phe-Gly-OBn; configuration not given here), the TGI is greater than 100 µM in assay [2]; 36.3 µM in assay [3]; greater than 100 µM in assay [11]; greater than 100 µM in [8]; 31.4 µM in assay [5]; 48.8 µM in assay [9]. Further, the TGI in [6] was 26.5 µM; in [7] it was 44.1 µM; in [10], 40.2 µM.
`CCc1c(C)c(C#N)c(=S)n(C2OC(CO)C(O)C(O)C2O)c1C` (centres undefined): the TGI in assay [3], in [4], in [11], in [8], in [5] and in assay [9] was greater than 100 µM each time. For the same molecule, the TGI in [6], in assay [7] and in assay [10] was greater than 100 µM in each case.
On to `COc1c2cc(C(C)(C)C)cc1Cc1cccc(c1O)Cc1cc(C(C)(C)C)cc(c1OC)Cc1cccc(c1O)Cc1cc(C(C)(C)C)cc(c1OC)Cc1cccc(c1O)C2`, for which the TGI in [2], in assay [3], in assay [4], in [11], in [8] and in assay [5] was greater than 100 µM each time. Moreover, the TGI in [9], in assay [7] and in assay [10] was greater than 100 µM in each case.
For `Cn1cnc2c(sc3nc4ccccc4n32)c1=N`, the TGI in assay [1], in [2], in assay [3], in assay [11], in assay [8] and in assay [6] was greater than 100 µM each time. The TGI in assay [7] and in assay [10] was greater than 100 µM throughout.
On to `O=C1c2cccc3cccc(c23)C(=O)N1CCCNOCCONCCCN1C(=O)c2cccc3cccc(c23)C1=O`, for which the TGI in assay [1], in assay [2], in assay [3], in assay [4], in [11] and in assay [8] was greater than 100 µM in each case. In addition, the TGI in assay [5], in assay [6] and in assay [10] was greater than 100 µM each time.
On to `CCCCOCn1c(=O)[nH]c(=O)c2cc(Br)ccc21`, for which the TGI was 46.9 µM in [2]; greater than 100 µM in assay [3]; greater than 100 µM in assay [4]; greater than 100 µM in assay [11]; greater than 100 µM in assay [8]; greater than 100 µM in [5]. The TGI in assay [6], in assay [7] and in [10] was greater than 100 µM in each case.
Regarding `C#CCn1c(=O)c(C#N)c(O)c2cc3ccccc3nc21`, the TGI in assay [2], in [3], in assay [4], in assay [11], in assay [5] and in [9] was greater than 100 µM each time. The TGI in assay [6], in assay [7] and in assay [10] was greater than 100 µM throughout.
As to `Cn1c2ccccc2c2c3c(c4c5ccccc5n(C)c4c21)C(=O)c1ccccc1C3=O`, the TGI in assay [2] was greater than 100 µM; in assay [3], 45.9 µM; in [4], greater than 100 µM; in [11] it was 52.4 µM; in assay [8], greater than 100 µM; in assay [9], 68.2 µM. For the same molecule, the TGI was greater than 100 µM in [6], 51.1 µM in assay [7] and greater than 100 µM in [10].
`C=CC[C@@]1(C(=O)OC)[C@H](Sc2ccccc2)C1(C)C`: the TGI in [1], in assay [2], in assay [3], in assay [4], in assay [11] and in assay [8] was greater than 100 µM throughout. In addition, the TGI is 87.9 µM in assay [9], greater than 100 µM in assay [6], greater than 100 µM in assay [7] and greater than 100 µM in [10].
With `COC(=O)C1(Cc2ccccc2)Cc2ccccc2C1`, the TGI in assay [1] was greater than 100 µM; in assay [2] it was 65.4 µM; in [3], 73.5 µM; in [4], greater than 100 µM; in assay [8], 41.8 µM; in assay [5] it was 52.3 µM. Besides, the TGI in assay [6] was greater than 100 µM; in [7], greater than 100 µM; in [10], 49.8 µM.
In the case of `CC(=O)O[C@H]1C(=O)[C@@]2(C)[C@H]([C@H](OC(=O)c3ccccc3)[C@]3(O)C[C@H](OC(=O)[C@H](O)[C@@H](NC(=O)CC(C)(C)C)c4ccccc4)C(C)=C1C3(C)C)C1(OC(C)=O)CO[C@@H]1C[C@@H]2O` (some centres undefined), the TGI in [1] is 0.00653 µM; in assay [2] it was greater than 10 µM; in assay [11] it was greater than 10 µM; in assay [5], greater than 10 µM; in assay [6], greater than 10 µM; in [7] it was 0.00453 µM. Besides, the TGI in assay [10] is greater than 3.34 µM.
Regarding `NNC(=S)N1CCN(C(=S)NN)CC1`, the TGI in assay [1], in assay [2], in assay [3], in [4], in assay [11] and in assay [8] was greater than 100 µM in each case. The TGI in assay [9], in [6] and in assay [10] was greater than 100 µM each time.
As for `COc1cc(/C=C2\CCC(C)C3=C2NC(=S)NC3c2cc(OC)c(OC)c(OC)c2)cc(OC)c1OC` (centres undefined), the TGI in assay [1], in assay [2], in assay [3], in assay [4], in assay [11] and in [8] was greater than 100 µM each time. The TGI in assay [5], in [6] and in assay [10] was greater than 100 µM each time.
On to `CC(C)(C)OC[C@H](O)CC#N`, for which the TGI in assay [1], in assay [2], in [3], in [4], in [11] and in assay [8] was greater than 100 µM throughout. Further, the TGI in assay [5], in [7] and in assay [10] was greater than 100 µM each time.
On to `Cc1ccc(S(=O)(=O)c2c(O)c3ccccc3n(C)c2=O)cc1`, for which the TGI in assay [1], in assay [2], in assay [3], in assay [4], in assay [11] and in assay [8] was greater than 100 µM each time. Also, the TGI in assay [5], in [6], in [7] and in assay [10] was greater than 100 µM in each case.

(Values after PubChem BioAssay (NCI).)
